Experimental data from patent publication US20150322083A1, “(THIENO[2,3-b][1,5]BENZOXAZEPIN-4-YL)PIPERAZIN-1-YL COMPOUNDS AS SELECTIVE 5-HT2A INVERSE AGONISTS” (Eli Lilly and Company, priority 2014, published 2015).

Legend:
Dopamine Transporter = Dopamine Transporter (Homo sapiens, UniProt Q01959); test: Dopamine transporter binding
Protocol: (§1) Curves are evaluated using a 4-parameter logistic nonlinear equation to obtain the concentration of competitor causing 50% inhibition of radioligand binding (IC50). Equilibrium dissociation constants (Ki) are calculated according to the equation Ki=IC50/(1+L/Kd), where L equals the concentration of radioligand used in the experiment and Kd equals the equilibrium dissociation constant of the radioligand for the receptor, determined from standard saturation analysis or homologous competition experiments. Reported values for Ki, where n values are indicated, are shown as geometric mean±the standard error of the mean (SEM), with the number of replicate determinations indicated by n. Geometric means are calculated by the equation GeoMean=10̂(Average(log Ki 1+log Ki 2+ . . . log Ki n)/[…]).
(§2) Further, the compounds of the invention may be tested in binding assays and functional activity assays by well known methods for other physiologically important receptors such as, but not limited to, the hERG channel, other serotonin receptors (specifically 5-HT1B receptors, lack of agonist activity at 5-HT2B receptors, 5-HT2C, 5-HT5, 5-HT6, and 5-HT7 receptors), dopaminergic receptors (specifically D1, D2, and D3), H1 receptors, GABAA receptors, adrenergic receptors and monoamine transporters.

[1] = test system: MK-801 induced locomotor hyperactivity; test: MK-801 induced locomotor hyperactivity in mice; type: in vivo; conditions: for Distance traveled during habituation with vehicle or compound, Mean: 1 hr. habituation before MK-801; for Distance traveled after administration of vehicle or 0.1 mg/Kg MK-801, Mean: 2 hrs after MK-801 0.1 mg/kg SC
Excerpt: MK-801 induced locomotor hyperactivity in mice: The rodent MK-801 induced locomotor hyperactivity assay has been used as a predictor of anti-psychotic therapeutic potential (Corbett, R., Camacho, F., Woods, A. T., Kerman, L. L., Fishkin, R. J., Brooks, K., and Dunn, R. W. Antipsychotic agents antagonize non-competitive N-methyl-D-aspartate antagonist-induced behaviors. Psychopharmacology (1995) vol. 120: 67-74). Compounds of the invention may be evaluated for their ability to reduce locomotor hyperactivity elicited by the NMDA receptor antagonist MK-801. Studies are conducted in the dark. Locomotor activity is measured in clear Perspex™ boxes (40×40×30 cm) based on infrared fields (100×100 cm). Sixteen boxes are used, four on each field, each monitored using overhead infrared cameras (Sanyo VCV-3412P, TrackSys Ltd, UK). The cameras feed into a Quad Videoswitch (VQ403-C), TrackSys Ltd, UK), which in turn feeds a PC running the image analysis application Ethovision v8 (Noidus, NL).
All treatment tzroups have initial sample sizes of n=8. Mice are assigned to groups using a pseudorandomised block method where treatments are balanced across the time of day of testing and the test room used. On the test day, animals are transported to the testing room ante-chamber in their home cages and dosed with the test compound (0.3-3 mg/kg po) or vehicle before being placed individually into the test boxes for 1 hr., during which time locomotor activity is measured. Following this habituation period, animals are dosed with MK-801 (0.1 mg/kg SC) or vehicle as appropriate and then replaced into the test boxes where locomotor activity is measured for a further 2 hrs. The measurement of interest for LMA studies is the distance moved (cm). Unless stated otherwise, points on all graphs are plotted as the mean±standard errors.
Data are imported into STATISTICA (v9) for statistical analyses. A general linear model approach is used for all multivariate ANOVAs calculated for the data. Following ANOVA, planned comparisons are used to investigate significant differences from the control animals. Statistical significances are denoted by the following symbols: *p<0.05, **p<0.01. Mean values calculated in Statistica are imported into SigmaPlot (v11) to graph the data.

[2] = target: recombinant human 5-HT2A receptor (Homo sapiens, UniProt P28223); test: 5-HT2A competition binding assay ([3H]-Ketanserin, SPA); design: expressed in transfected cells
Protocol: [^3H]-Ketanserin binding experiments are carried out in SPA 96-well format. Membranes used in this assay are prepared from AV-12 cells stably expressing recombinant 5-HT2A receptors (human). The incubation is initiated by the addition of a mixture of WGA YSi SPA beads (1 mg/well, Perkin Elmer (MA, USA), Product No. RPNQ0011) and 2 μg membranes to assay buffer (67 mM Tris, 0.5 mM EDTA; pH 7.6) containing 3.1 nM [^3H]-Ketanserin and varying concentrations of the test compound (10 point concentration response curves). Non-specific binding is determined in the presence of 20 μM 1-(1-naphthyl)piperazine. Samples are incubated for 4 hr. at room temperature (22° C.) and then read in a microplate scintillation counter.
Curves are evaluated using a 4-parameter logistic nonlinear equation to obtain the concentration of competitor causing 50% inhibition of radioligand binding (IC50). Equilibrium dissociation constants (Ki) are calculated according to the equation Ki=IC50/(1+L/Kd), where L equals the concentration of radioligand used in the experiment and Kd equals the equilibrium dissociation constant of the radioligand for the receptor, determined from standard saturation analysis or homologous competition experiments. […]

5-HT5 = 5-HT5 (Homo sapiens, UniProt P47898); test: 5-HT5 binding
Protocol: as §1, §2

5-HT6 = 5-HT6 (Homo sapiens, UniProt P50406); test: 5-HT6 binding
Protocol: as §1, §2

Adrenergic alpha2A = Adrenergic alpha2A (Homo sapiens, UniProt P08913); test: Adrenergic alpha2A binding
Protocol: as §1, §2

5-HT1B receptors = 5-HT1B receptors (Homo sapiens, UniProt P28222); test: 5-HT1B binding
Protocol: as §1, §2

Dopamine D2 = Dopamine D2 (Homo sapiens, UniProt P14416); test: Dopamine D2 binding
Protocol: as §1, §2

Serotonin Transporter = Serotonin Transporter (Homo sapiens, UniProt P31645); test: Serotonin transporter binding
Protocol: as §1, §2

Chain of Dopamine D2 (P14416 whole entry): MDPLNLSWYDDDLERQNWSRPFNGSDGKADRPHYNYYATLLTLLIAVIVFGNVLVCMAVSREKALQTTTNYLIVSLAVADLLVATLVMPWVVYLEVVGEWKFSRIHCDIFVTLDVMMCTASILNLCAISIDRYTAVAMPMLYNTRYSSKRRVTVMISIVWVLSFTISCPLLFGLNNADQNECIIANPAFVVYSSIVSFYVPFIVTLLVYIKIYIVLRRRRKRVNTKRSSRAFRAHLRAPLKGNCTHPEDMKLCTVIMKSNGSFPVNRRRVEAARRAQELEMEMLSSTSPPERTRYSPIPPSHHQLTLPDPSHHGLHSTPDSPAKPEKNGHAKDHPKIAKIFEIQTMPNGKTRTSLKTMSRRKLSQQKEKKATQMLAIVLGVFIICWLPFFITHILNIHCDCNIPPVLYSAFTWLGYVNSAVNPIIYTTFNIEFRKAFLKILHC
Chain of 5-HT1B receptors (P28222 whole entry): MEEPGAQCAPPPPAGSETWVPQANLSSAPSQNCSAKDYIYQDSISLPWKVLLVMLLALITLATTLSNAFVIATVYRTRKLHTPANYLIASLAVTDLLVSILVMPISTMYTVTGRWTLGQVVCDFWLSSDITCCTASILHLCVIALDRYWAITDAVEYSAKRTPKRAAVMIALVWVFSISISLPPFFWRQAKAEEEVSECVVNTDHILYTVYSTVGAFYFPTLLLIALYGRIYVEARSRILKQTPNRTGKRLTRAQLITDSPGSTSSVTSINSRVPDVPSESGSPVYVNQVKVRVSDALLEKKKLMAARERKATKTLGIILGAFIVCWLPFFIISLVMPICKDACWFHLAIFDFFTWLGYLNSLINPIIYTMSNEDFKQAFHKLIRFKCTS
Chain of Dopamine Transporter (Q01959 whole entry): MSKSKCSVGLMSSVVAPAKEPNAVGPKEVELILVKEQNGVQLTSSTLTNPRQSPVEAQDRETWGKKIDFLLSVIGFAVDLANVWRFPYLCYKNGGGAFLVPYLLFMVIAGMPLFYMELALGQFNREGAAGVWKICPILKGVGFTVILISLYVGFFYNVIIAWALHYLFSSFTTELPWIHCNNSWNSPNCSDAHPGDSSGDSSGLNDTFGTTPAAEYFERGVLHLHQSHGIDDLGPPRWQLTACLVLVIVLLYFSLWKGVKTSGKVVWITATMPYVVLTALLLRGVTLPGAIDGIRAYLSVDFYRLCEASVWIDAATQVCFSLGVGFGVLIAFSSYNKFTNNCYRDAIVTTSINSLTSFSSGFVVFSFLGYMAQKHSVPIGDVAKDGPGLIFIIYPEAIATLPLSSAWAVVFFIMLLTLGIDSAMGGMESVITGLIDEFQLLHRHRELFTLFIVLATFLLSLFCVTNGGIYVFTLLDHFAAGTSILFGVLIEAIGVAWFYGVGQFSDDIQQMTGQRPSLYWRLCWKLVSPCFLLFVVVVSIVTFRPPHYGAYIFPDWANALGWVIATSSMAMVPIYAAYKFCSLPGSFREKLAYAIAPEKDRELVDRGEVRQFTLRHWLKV
Chain of Adrenergic alpha2A (P08913 whole entry): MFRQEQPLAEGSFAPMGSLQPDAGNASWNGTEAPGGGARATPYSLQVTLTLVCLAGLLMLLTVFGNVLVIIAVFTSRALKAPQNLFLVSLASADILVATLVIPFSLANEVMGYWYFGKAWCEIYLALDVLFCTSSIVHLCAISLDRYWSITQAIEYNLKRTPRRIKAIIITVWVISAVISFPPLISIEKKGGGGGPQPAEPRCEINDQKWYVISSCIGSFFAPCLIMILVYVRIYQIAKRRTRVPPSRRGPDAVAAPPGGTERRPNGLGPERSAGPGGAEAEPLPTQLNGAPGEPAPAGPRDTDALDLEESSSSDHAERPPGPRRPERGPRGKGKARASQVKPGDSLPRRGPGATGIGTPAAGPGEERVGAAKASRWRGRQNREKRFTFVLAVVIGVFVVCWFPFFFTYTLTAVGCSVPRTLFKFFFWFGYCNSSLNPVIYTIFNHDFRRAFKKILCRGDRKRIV
Chain of 5-HT6 (P50406 whole entry, species assumed): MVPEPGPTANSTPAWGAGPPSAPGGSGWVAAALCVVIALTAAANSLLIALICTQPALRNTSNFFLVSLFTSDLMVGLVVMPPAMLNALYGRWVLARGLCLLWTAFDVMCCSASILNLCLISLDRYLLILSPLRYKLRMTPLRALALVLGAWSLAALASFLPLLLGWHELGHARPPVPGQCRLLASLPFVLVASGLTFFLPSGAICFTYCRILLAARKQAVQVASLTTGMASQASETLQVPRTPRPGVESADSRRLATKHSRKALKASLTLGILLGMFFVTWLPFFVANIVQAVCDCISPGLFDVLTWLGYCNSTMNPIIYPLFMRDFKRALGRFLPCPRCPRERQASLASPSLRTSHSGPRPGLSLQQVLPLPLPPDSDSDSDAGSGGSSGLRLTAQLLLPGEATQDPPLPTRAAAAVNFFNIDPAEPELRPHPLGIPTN
Chain of Serotonin Transporter (P31645 whole entry): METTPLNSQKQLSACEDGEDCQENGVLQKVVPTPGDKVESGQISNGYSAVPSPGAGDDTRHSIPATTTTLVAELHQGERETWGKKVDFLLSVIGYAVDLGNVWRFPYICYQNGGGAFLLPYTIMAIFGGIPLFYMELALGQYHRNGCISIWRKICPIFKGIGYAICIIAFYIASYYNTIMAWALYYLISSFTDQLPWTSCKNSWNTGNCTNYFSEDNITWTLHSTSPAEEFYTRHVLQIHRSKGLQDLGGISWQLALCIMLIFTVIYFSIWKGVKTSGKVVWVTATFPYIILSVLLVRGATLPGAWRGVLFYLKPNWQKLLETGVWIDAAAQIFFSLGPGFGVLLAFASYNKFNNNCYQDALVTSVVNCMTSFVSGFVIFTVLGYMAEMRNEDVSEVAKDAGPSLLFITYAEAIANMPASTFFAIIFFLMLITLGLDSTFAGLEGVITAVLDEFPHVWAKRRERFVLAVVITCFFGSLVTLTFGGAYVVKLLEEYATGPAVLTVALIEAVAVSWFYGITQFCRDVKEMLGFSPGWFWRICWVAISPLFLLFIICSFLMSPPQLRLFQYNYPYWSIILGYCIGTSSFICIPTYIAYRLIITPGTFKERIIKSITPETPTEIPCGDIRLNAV
Chain of recombinant human 5-HT2A receptor (P28223 whole entry): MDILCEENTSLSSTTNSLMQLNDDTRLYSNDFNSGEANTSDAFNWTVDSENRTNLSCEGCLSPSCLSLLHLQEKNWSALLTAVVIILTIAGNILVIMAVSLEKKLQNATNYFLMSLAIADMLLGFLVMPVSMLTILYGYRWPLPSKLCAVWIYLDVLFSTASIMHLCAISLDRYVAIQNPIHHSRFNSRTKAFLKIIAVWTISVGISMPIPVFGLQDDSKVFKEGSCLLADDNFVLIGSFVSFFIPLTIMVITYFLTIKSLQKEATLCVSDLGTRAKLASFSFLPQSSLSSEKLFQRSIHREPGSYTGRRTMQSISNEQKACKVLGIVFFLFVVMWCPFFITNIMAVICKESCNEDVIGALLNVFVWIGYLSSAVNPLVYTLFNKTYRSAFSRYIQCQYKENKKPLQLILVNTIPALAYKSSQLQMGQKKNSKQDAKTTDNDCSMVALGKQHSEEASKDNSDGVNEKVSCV
Chain of 5-HT5 (P47898 whole entry, species assumed): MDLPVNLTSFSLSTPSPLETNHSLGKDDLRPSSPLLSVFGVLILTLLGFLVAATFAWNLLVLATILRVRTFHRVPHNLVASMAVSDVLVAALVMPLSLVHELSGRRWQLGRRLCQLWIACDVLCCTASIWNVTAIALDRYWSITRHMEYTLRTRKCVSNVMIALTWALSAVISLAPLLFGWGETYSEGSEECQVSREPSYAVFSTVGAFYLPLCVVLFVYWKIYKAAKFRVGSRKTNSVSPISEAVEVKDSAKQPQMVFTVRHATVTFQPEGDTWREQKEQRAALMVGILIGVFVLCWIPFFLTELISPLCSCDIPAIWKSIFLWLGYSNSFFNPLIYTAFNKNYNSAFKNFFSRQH

In the case of `Cc1ccc2c(c1)Oc1sc(SC(C)C)cc1C(N1CCN(CC(C)(C)C(=O)O)CC1)=N2` [Example 1, 3-[4-(2-isopropylsulfanyl-8-methyl-thieno[2,3-b][1,5]benzoxazepin-4-yl)piperazin-1-yl]-2,2-dimethyl-propanoic acid], the Ki (Dopamine Transporter) is reported as over 866 nM, the “Distance traveled during habituation with vehicle or compound, Mean” value (“Distance traveled during habituation” below) ([1]; 0.3 mg/Kg po) is reported as 9336.73 cm and the “Distance traveled after administration of vehicle or 0.1 mg/Kg MK-801, Mean” value (from here on “Distance traveled after administration”) ([1]; 0.3 mg/Kg po) is reported as 8492.08 cm. For the same compound, the “Distance traveled during habituation” value ([1]; 1.0 mg/Kg po) was 8939.48 cm, the “Distance traveled after administration” value ([1]; 1.0 mg/Kg po) was 7258.87 cm and the “Distance traveled during habituation” value ([1]; 3.0 mg/Kg po) was 7682.77 cm. For the same compound, the “Distance traveled after administration” value ([1]; 3.0 mg/Kg po) was 7085.68 cm, the “effect on MK-801 induced locomotor hyperactivity (in words)” value ([1]; 0.3-3 mg/kg po) was “significantly block” and the Ki [2] was 4.84 nM. It also gave a Ki (5-HT5) of 6710 nM, a Ki (5-HT6) of 1130 nM and a Ki (Adrenergic alpha2A) of over 1610 nM. The Ki (5-HT1B receptors) was over 9590 nM, the Ki (Dopamine D2) was over 7660 nM and the Ki (Serotonin Transporter) was over 521 nM.
